Measurements taken from patent US6706663B2, “Herbicidal 3-heterocyclic substituted benzisothiazole and benzisoxazole compounds” (Wyeth, priority 2000, dated 2004).

Legend:
[1] = system: ABUTH (Abutilon theophrasti); experiment: Postemergence herbicidal evaluation; assay type: in vivo, Medic.; settings: postemergence
How it was run: (§1)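 Seedlings grown about two weeks in flats, sprayed, then kept under standard greenhouse care. Rated visually 4–5 weeks after treatment on a 0–9 scale (stand, vigour, malformation, size, chlorosis, overall appearance) relative to untreated control; repeat tests averaged.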

[2] = system: AMBEL (Ambrosia artemisifolia); experiment: Postemergence herbicidal evaluation; assay type: in vivo, L.; settings: postemergence
How it was run: as §1

[3] = system: CASOB (Cassia obtusifolia); experiment: Postemergence herbicidal evaluation; assay type: in vivo, L.; settings: postemergence
How it was run: as §1

[4] = system: CHEAL (Chenopodium album); experiment: Postemergence herbicidal evaluation; assay type: in vivo, L.; settings: postemergence
How it was run: as §1

[5] = system: GALAP (Galium aparine); experiment: Postemergence herbicidal evaluation; assay type: in vivo; settings: postemergence
How it was run: as §1

[6] = system: IPOHE (Ipomoea hederacea); experiment: Postemergence herbicidal evaluation; assay type: in vivo, (L.) Jacq.; settings: postemergence
How it was run: as §1

[7] = system: ECHCG (Echinochloa crus-galli); experiment: Postemergence herbicidal evaluation; assay type: in vivo, (L.) Beau; settings: postemergence
How it was run: as §1

[8] = system: GLXMAW (Soybean, Williams); experiment: Postemergence herbicidal evaluation; assay type: in vivo, Glycine max, (L.) Merr. cv Williams; settings: postemergence
How it was run: as §1

[9] = system: ORYSAT (Rice, Tebonnet); experiment: Postemergence herbicidal evaluation; assay type: in vivo, Oryza sativa, (L.) Tebonnet; settings: postemergence
How it was run: as §1

[10] = system: TRZAWR (Wheat, Winter, cv Riband); experiment: Postemergence herbicidal evaluation; assay type: in vivo, Triticum aestivum; settings: postemergence
How it was run: as §1

[11] = system: ZEAMX (Corn, Field); experiment: Postemergence herbicidal evaluation; assay type: in vivo, Zea mays, L.; settings: postemergence
How it was run: as §1

[12] = system: ABUTH (Abutilon theophrasti); experiment: Preemergence herbicidal evaluation; assay type: in vivo, Medic.; settings: preemergence, rated 4-5 weeks after treatment
[13] = system: AMBEL (Ambrosia artemisifolia); experiment: Preemergence herbicidal evaluation; assay type: in vivo, L.; settings: preemergence, rated 4-5 weeks after treatment
How it was run: (§2)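 Seeds planted in potting soil cups and sprayed preemergence with aqueous acetone compound solution. Greenhouse-grown; rated 4–5 weeks after treatment on a 0-9 visual scale (stand, vigor, malformation, size, chlorosis, appearance) versus control.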

[14] = system: GALAP (Galium aparine); experiment: Preemergence herbicidal evaluation; assay type: in vivo; settings: preemergence, rated 4-5 weeks after treatment
How it was run: as §2

[15] = system: IPOHE (Ipomoea hederacea); experiment: Preemergence herbicidal evaluation; assay type: in vivo, (L.) Jacq.; settings: preemergence, rated 4-5 weeks after treatment
[16] = system: ECHCG (Echinochloa crus-galli); experiment: Preemergence herbicidal evaluation; assay type: in vivo, (L.) Beau; settings: preemergence, rated 4-5 weeks after treatment
How it was run: as §2

[17] = system: GLXMA (Soybean); experiment: Preemergence herbicidal evaluation; assay type: in vivo, Glycine max, (L.) Merr.; settings: preemergence, rated 4-5 weeks after treatment
[18] = system: ZEAMX (Corn, Field); experiment: Preemergence herbicidal evaluation; assay type: in vivo, Zea mays, L.; settings: preemergence, rated 4-5 weeks after treatment
[19] = system: ECHORC (Echinochloa oryzoides); experiment: Flooded paddy, preemergence weed control; assay type: in vivo, Echinochloa oryzoides (Ard.) Fritsch.; settings: rated 3-4 weeks after treatment, 0-9 rating scale
How it was run: (§3)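 Greenhouse paddy test, preemergence. Seeds planted in the top 0.5 cm of silt loam soil, which remained flooded at 1.5–3 cm depth. Scored 0-9 by visual comparison with control.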

[20] = system: CYPIR (Cyperus iria); experiment: Flooded paddy, preemergence weed control; assay type: in vivo; settings: rated 3-4 weeks after treatment, 0-9 rating scale
How it was run: as §3

[21] = system: MOOVA (Monochoria vaginalis); experiment: Flooded paddy, preemergence weed control; assay type: in vivo, Presl.; settings: rated 3-4 weeks after treatment, 0-9 rating scale
How it was run: as §3

[22] = system: SAGPY (Sagittaria pygmaea); experiment: Flooded paddy, preemergence weed control; assay type: in vivo, L.; settings: rated 3-4 weeks after treatment, 0-9 rating scale
How it was run: as §3

[23] = system: ORYSAT (Rice, Tebonnet); experiment: Flooded paddy, post-transplant rice tolerance; assay type: in vivo, Oryza sativa, (L.) Tebonnet
How it was run: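 Ten-day-old seedlings, 2/pot, silt loam; flood kept 1.5–3 cm over soil; herbicide applied post-transplant; greenhouse; score 0–9 visual vs control.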

5-[5-[3,6-dihydro-3-methyl-2,6-dioxo-4-(trifluoromethyl)-1(2H)-pyrimidinyl]-1,2-benzisothiazol-3-yl]-1,6-hydro-6-oxo-2,3-pyrazinedicarbonitrile [Compound 91]
8.0: IPOHE herbicidal rating ([6]; rate 0.1250 kg/ha)
4.0: AMBEL herbicidal rating ([2]; rate 0.0320 kg/ha) | AMBEL herbicidal rating ([2]; rate 0.0620 kg/ha) | CASOB herbicidal rating ([3]; rate 0.1250 kg/ha)
0.0: CASOB herbicidal rating ([3]; rate 0.0320 kg/ha) | ECHCG herbicidal rating ([7]; rate 0.0320 kg/ha) | ECHCG herbicidal rating ([7]; rate 0.0620 kg/ha) | ECHCG herbicidal rating ([7]; rate 0.1250 kg/ha) | ORYSAT herbicidal rating ([9]; rate 0.0320 kg/ha) | TRZAWR herbicidal rating ([10]; rate 0.0320 kg/ha) | TRZAWR herbicidal rating ([10]; rate 0.0620 kg/ha) | TRZAWR herbicidal rating ([10]; rate 0.1250 kg/ha) | Preemergence herbicidal rating ABUTH ([12]; rate 0.0620 kg/ha) | Preemergence herbicidal rating ABUTH ([12]; rate 0.1250 kg/ha) | Preemergence herbicidal rating ABUTH ([12]; rate 0.2500 kg/ha) | Preemergence herbicidal rating AMBEL ([13]; rate 0.0620 kg/ha) | Preemergence herbicidal rating AMBEL ([13]; rate 0.1250 kg/ha) | Preemergence herbicidal rating AMBEL ([13]; rate 0.2500 kg/ha) | Preemergence herbicidal rating GALAP ([14]; rate 0.0620 kg/ha) | Preemergence herbicidal rating GALAP ([14]; rate 0.1250 kg/ha) | Preemergence herbicidal rating GALAP ([14]; rate 0.2500 kg/ha) | Preemergence herbicidal rating IPOHE ([15]; rate 0.0620 kg/ha) | Preemergence herbicidal rating IPOHE ([15]; rate 0.1250 kg/ha) | Preemergence herbicidal rating IPOHE ([15]; rate 0.2500 kg/ha) | Preemergence herbicidal rating ECHCG ([16]; rate 0.0620 kg/ha) | Preemergence herbicidal rating ECHCG ([16]; rate 0.1250 kg/ha) | Preemergence herbicidal rating ECHCG ([16]; rate 0.2500 kg/ha) | Preemergence herbicidal rating GLXMA ([17]; rate 0.0620 kg/ha) | Preemergence herbicidal rating GLXMA ([17]; rate 0.1250 kg/ha) | Preemergence herbicidal rating GLXMA ([17]; rate 0.2500 kg/ha) | Preemergence herbicidal rating ZEAMX ([18]; rate 0.0620 kg/ha) | Preemergence herbicidal rating ZEAMX ([18]; rate 0.1250 kg/ha) | Preemergence herbicidal rating ZEAMX ([18]; rate 0.2500 kg/ha) | ECHORC herbicidal rating ([19]; rate 0.0320 kg/ha) | ECHORC herbicidal rating ([19]; rate 0.1250 kg/ha) | CYPIR herbicidal rating ([20]; rate 0.0320 kg/ha) | CYPIR herbicidal rating ([20]; rate 0.1250 kg/ha) | MOOVA herbicidal rating ([21]; rate 0.0320 kg/ha) | MOOVA herbicidal rating ([21]; rate 0.1250 kg/ha) | SAGPY herbicidal rating ([22]; rate 0.0320 kg/ha) | SAGPY herbicidal rating ([22]; rate 0.1250 kg/ha) | ORYSAT herbicidal rating (transplanted rice tolerance) ([23]; in vivo)
6.0: GLXMAW herbicidal rating ([8]; rate 0.0320 kg/ha) | GLXMAW herbicidal rating ([8]; rate 0.0620 kg/ha) | GLXMAW herbicidal rating ([8]; rate 0.1250 kg/ha)
1.5: ZEAMX herbicidal rating ([11]; rate 0.0320 kg/ha)
3.0: CASOB herbicidal rating ([3]; rate 0.0620 kg/ha) | GALAP herbicidal rating ([5]; rate 0.0320 kg/ha) | GALAP herbicidal rating ([5]; rate 0.0620 kg/ha) | GALAP herbicidal rating ([5]; rate 0.1250 kg/ha) | ZEAMX herbicidal rating ([11]; rate 0.1250 kg/ha)
2.5: ZEAMX herbicidal rating ([11]; rate 0.0620 kg/ha)
5.0: ABUTH herbicidal rating ([1]; rate 0.0320 kg/ha) | AMBEL herbicidal rating ([2]; rate 0.1250 kg/ha)
9.0: ABUTH herbicidal rating ([1]; rate 0.1250 kg/ha) | CHEAL herbicidal rating ([4]; rate 0.0320 kg/ha) | CHEAL herbicidal rating ([4]; rate 0.0620 kg/ha) | CHEAL herbicidal rating ([4]; rate 0.1250 kg/ha)
7.0: ABUTH herbicidal rating ([1]; rate 0.0620 kg/ha) | IPOHE herbicidal rating ([6]; rate 0.0320 kg/ha) | IPOHE herbicidal rating ([6]; rate 0.0620 kg/ha)
1.0: ORYSAT herbicidal rating ([9]; rate 0.1250 kg/ha)
0.5: ORYSAT herbicidal rating ([9]; rate 0.0620 kg/ha)

COC1(c2nsc3ccc(-n4c(=O)cc(C(F)(F)F)n(C)c4=O)cc23)N=C(N(C)C)NC1=O (stereo not shown) [Compound 93, 3-[3-[2-(dimethylamino)-4-methoxy-5-oxo-2-imidazolin-4-yl]-1,2-benzisothiazol-5-yl]-1-methyl-6-(trifluoromethyl)uracil]
5.5: TRZAWR herbicidal rating ([10]; rate 0.0320 kg/ha) | ZEAMX herbicidal rating ([11]; rate 0.0320 kg/ha) | ZEAMX herbicidal rating ([11]; rate 0.0620 kg/ha)
9.0: ABUTH herbicidal rating ([1]; rate 0.0320 kg/ha) | ABUTH herbicidal rating ([1]; rate 0.0620 kg/ha) | AMBEL herbicidal rating ([2]; rate 0.0320 kg/ha) | AMBEL herbicidal rating ([2]; rate 0.0620 kg/ha) | CASOB herbicidal rating ([3]; rate 0.0620 kg/ha) | CHEAL herbicidal rating ([4]; rate 0.0320 kg/ha) | CHEAL herbicidal rating ([4]; rate 0.0620 kg/ha) | GALAP herbicidal rating ([5]; rate 0.0320 kg/ha) | GALAP herbicidal rating ([5]; rate 0.0620 kg/ha) | IPOHE herbicidal rating ([6]; rate 0.0320 kg/ha) | IPOHE herbicidal rating ([6]; rate 0.0620 kg/ha) | ECHCG herbicidal rating ([7]; rate 0.0320 kg/ha) | ECHCG herbicidal rating ([7]; rate 0.0620 kg/ha) | GLXMAW herbicidal rating ([8]; rate 0.0320 kg/ha) | GLXMAW herbicidal rating ([8]; rate 0.0620 kg/ha) | Preemergence herbicidal rating ABUTH ([12]; rate 0.0620 kg/ha) | Preemergence herbicidal rating ABUTH ([12]; rate 0.1250 kg/ha) | Preemergence herbicidal rating ABUTH ([12]; rate 0.2500 kg/ha) | Preemergence herbicidal rating AMBEL ([13]; rate 0.2500 kg/ha) | Preemergence herbicidal rating IPOHE ([15]; rate 0.1250 kg/ha) | Preemergence herbicidal rating IPOHE ([15]; rate 0.2500 kg/ha) | CYPIR herbicidal rating ([20]; rate 0.1250 kg/ha) | MOOVA herbicidal rating ([21]; rate 0.1250 kg/ha) | SAGPY herbicidal rating ([22]; rate 0.1250 kg/ha)
7.0: CASOB herbicidal rating ([3]; rate 0.0320 kg/ha) | Preemergence herbicidal rating AMBEL ([13]; rate 0.1250 kg/ha) | Preemergence herbicidal rating GLXMA ([17]; rate 0.2500 kg/ha)
0.0: Preemergence herbicidal rating ECHCG ([16]; rate 0.0620 kg/ha) | Preemergence herbicidal rating ECHCG ([16]; rate 0.1250 kg/ha) | Preemergence herbicidal rating ZEAMX ([18]; rate 0.0620 kg/ha) | Preemergence herbicidal rating ZEAMX ([18]; rate 0.1250 kg/ha) | Preemergence herbicidal rating ZEAMX ([18]; rate 0.2500 kg/ha) | ECHORC herbicidal rating ([19]; rate 0.0320 kg/ha) | CYPIR herbicidal rating ([20]; rate 0.0320 kg/ha) | MOOVA herbicidal rating ([21]; rate 0.0320 kg/ha) | SAGPY herbicidal rating ([22]; rate 0.0320 kg/ha)
8.0: ORYSAT herbicidal rating ([9]; rate 0.0620 kg/ha) | ORYSAT herbicidal rating (transplanted rice tolerance) ([23]; flooded paddy, post-transplant rice, rate 0.1250 kg/ha, rated 3-4 weeks after treatment, 0-9 rating scale)
6.0: Preemergence herbicidal rating GLXMA ([17]; rate 0.1250 kg/ha) | ECHORC herbicidal rating ([19]; rate 0.1250 kg/ha)
4.0: ORYSAT herbicidal rating ([9]; rate 0.0320 kg/ha) | Preemergence herbicidal rating AMBEL ([13]; rate 0.0620 kg/ha) | Preemergence herbicidal rating ECHCG ([16]; rate 0.2500 kg/ha) | Preemergence herbicidal rating GLXMA ([17]; rate 0.0620 kg/ha)
7.5: TRZAWR herbicidal rating ([10]; rate 0.0620 kg/ha)
3.0: Preemergence herbicidal rating IPOHE ([15]; rate 0.0620 kg/ha)
